Experimental data published in patent publication US10696693B2, “Fused imidazole derivatives as TGF-beta inhibitors” (Rigel Pharmaceuticals, Inc., priority 2014, dated 2020).
Read-outs that look alike come from different tables or passages of the source.

Experiments:
GDF8 = test: AlphaScreen SureFire p-SMAD3 (Ser423/425) assay, GDF8-stimulated cells; type: cell-based
Source text: (§1) The p-SMAD-3 (Ser423/425) SureFire® assay has been designed to measure the phosphorylation of endogenous cellular p-SMAD-3 (Ser423/425) in cell lysates and is a system for the screening of both modulators of receptor activation (e.g. agonists and antagonists) as well as agents acting intracellularly, such as small molecule inhibitors of upstream events. The assay will measure p-SMAD-3 (Ser423/425) activation by either cloned or endogenous receptors, and can be applied to primary cells.
(§2) 96-well Assay Protocol for 293FT and RMS13 adherent cells can be carried out manually or in high throughput with liquid handling robots.
(§3) The cells (80 μL of cells for 96 well plates) were plated in collagen coated tissue culture plates in RPMI or FreeStyle medium (Invitrogen) and incubated overnight. For manual analysis, 6 plates for GDF8, 6 plates for TGFβ, and optionally 6 plates for Alk5ca(ALK5 constitutively active) were used.
(§4) The compound dilution plates were prepared as follows: 12 μL of DMSO was transferred into first column of 96-well plate, and 16 μL of DMSO was transferred into columns 2-12 of the 96-well plate. 12 μL of compound solution was transferred into first column of the DMSO-containing 96-well plate. Three-fold dilution was performed up to column 10 of the DMSO-containing 96-well plate.
(§5) The plate containing cells were treated with compounds for about 10 minutes, and then ligand was added. GDF8 or TGFb was added to plates to stimulate. 293FL cells were stimulatedfor 90 minutes at 37° C.; and RMS13 cells were stimulated for 60 minutes at 37° C. The medium was then removed from the cells, and 1× Lysis Buffer (about 25 μL) was added and the plate was gently agitated on plate shaker for 5-10 minutes.
(§6) The lysate (5 μL) was then placed into 384-well shallow plates avoiding the generation of bubbles. To this, the Reaction Buffer+Activation Buffer+AlphaScreen® Acceptor beadsmixture (5 μL) was added. The plate was sealed with adhesive cover and shielded from light (e.g., with metal foil), and agitated gently on plate shaker for 2 hours at room temperature.
(§7) Dilution buffer+AlphaScreen® Donor beads (2 μL) was then added, and the plate was intubated on the plate shaker for an additional 1½ hours. After completion, the plate was read on Synergy-4 or Enspire plate reader, using AlphaScreen® pSMAD3® settings.
(§8) Representative results for inhibition of GDF8 (data=GDF pSMAD (MPC11) (μM)) and TGF-β (data=TGF-β pSMAD (MPC-11) (μM)) signaling are shown in Table 1(A=<0.05 μM, B=0.05−<0.1 μM, C=0.1−<1.0 μM, D=>1.0 μM): […]

TGF-β = test: AlphaScreen SureFire p-SMAD3 (Ser423/425) assay, TGF-β-stimulated cells; type: cell-based
Source text: as §1, §2, §3, §4, §5, §6, §7, §8

[1] = Mus musculus, MPC-11, p-SMAD3 (Ser423/425) AlphaScreen in cell lysate, MPC11, GDF8 stimulation, read-out: GDF8: inhibition of GDF8 signaling, GDF pSMAD (MPC11)
[2] = Mus musculus, p-SMAD3 (Ser423/425) AlphaScreen in cell lysate, MPC-11, TGF-β stimulation, read-out: TGF-β: inhibition of TGF-β signaling, TGF-β pSMAD (MPC-11)
[3] = Mus musculus, MPC-11, read-out: GDF8: inhibition of GDF8 signaling, GDF pSMAD (MPC11), p-SMAD3 (Ser423/425) AlphaScreen in cell lysate, GDF8 stimulation
[4] = Mus musculus, MPC-11, read-out: TGF-β: inhibition of TGF-β signaling, TGF-β pSMAD (MPC-11), p-SMAD3 (Ser423/425) AlphaScreen in cell lysate, TGF-β stimulation

SMILES	IC50 (GDF8; [1]) [µM]	IC50 (TGF-β; [2]) [µM]	also measured
Cc1cc(-c2nc3n(c2-c2ccc4nccn4c2)CCC3)c(Cl)cc1F [Compound 68, 6-(2-(2-chloro-4-fluoro-5-methylphenyl)-6,7-dihydro-5H-pyrrolo[1,2-a]imidazol-3-yl)imidazo[1,2-a]pyridine]	0.05 to 0.1	0.1 to 1	–
Fc1cccc(-c2nc3n(c2-c2ccc4c(c2)OCO4)CCC3)c1 [Compound 223, 3-(benzo[d][1,3]dioxol-5-yl)-2-(3-fluorophenyl)-6,7-dihydro-5H-pyrrolo[1,2-a]imidazole]	> 1	> 1	–
COc1c(C)cc(-c2nc3n(c2-c2ccc4ncnn4c2)CCC3)cc1C [Compound 30, 6-(2-(4-methoxy-3,5-dimethylphenyl)-6,7-dihydro-5H-pyrrolo[1,2-a]imidazol-3-yl)-[1,2,4]triazolo[1,5-a]pyridine]	> 1	> 1	–
Fc1cc(F)cc(-c2nc3n(c2-c2ccc4[nH]ncc4c2)CCC3)c1 [Compound 230, 5-(2-(3,5-difluorophenyl)-6,7-dihydro-5H-pyrrolo[1,2-a]imidazol-3-yl)-1H-indazole]	–	–	IC50 (GDF8; [3]): 0.1 to 1 µM; IC50 (TGF-β; [4]): > 1 µM
Cc1cc(-c2nc3n(c2-c2ccc4ncsc4c2)CCC3)cc(C)c1F [Compound 277, 6-(2-(4-fluoro-3,5-dimethylphenyl)-6,7-dihydro-5H-pyrrolo[1,2-a]imidazol-3-yl)benzo[d]thiazole]	> 1	> 1	–
Cc1ccc(Cl)cc1-c1nc2n(c1-c1ccc3ncnn3c1)CCC2 [Compound 90, 6-(2-(5-chloro-2-methyl)-6,7-dihydro-5H-pyrrolo[1,2-a]imidazol-3-yl)-[1,2,4]triaolo[1,5-a]pyridine]	0.1 to 1	0.1 to 1	–
Fc1cc(F)c(F)c(-c2nc3n(c2-c2ccc4ncsc4c2)CCC3)c1 [Compound 235, 6-(2-(2,3,5-trifluorophenyl)-6,7-dihydro-5H-pyrrolo[1,2-a]imidazol-3-yl)benzo[d]thiazole]	–	–	IC50 (GDF8; [3]): 0.1 to 1 µM; IC50 (TGF-β; [4]): 0.1 to 1 µM
Clc1cccc(-c2nc3n(c2-c2ccc4cn[nH]c4c2)CCC3)c1 [Compound 190, 6-(2-(3-chlorophenyl)-6,7-dihydro-5H-pyrrolo[1,2-a]imidazol-3-yl)-1H-indazole]	–	–	IC50 (GDF8; [3]): < 0.05 µM; IC50 (TGF-β; [4]): 0.05 to 0.1 µM
O=C(O)C1CCC2(CC1)Cc1nc(-c3ccc(F)cc3)c(-c3ccc4ncnn4c3)n1C2 (stereo not drawn) [Compound 76, 3′-([1,2,4]triazolo[1,5-a]pyridin-6-yl)-2′-(4-fluorophenyl)-5′H,7′H-spiro[cyclohexane-1,6′-pyrrolo[1,2-a]imidazole]-4-carboxylic acid]	–	–	IC50 (GDF8; [3]): > 1 µM; IC50 (TGF-β; [4]): > 1 µM
Fc1cc(F)c(F)c(-c2nc3n(c2-c2ccc4nccnc4c2)CCC3)c1 [Compound 238, 6-(2-(2,3,5-trifluorophenyl)-6,7-dihydro-5H-pyrrolo[1,2-a]imidazol-3-yl)quinoxaline]	0.1 to 1	0.1 to 1	–
Cc1cc(-c2nc3n(c2-c2ccc4ncnn4c2)CCC3)c(F)cc1F [Compound 38, 6-(2-(2,4-difluoro-5-methylphenyl)-6,7-dihydro-5H-pyrrolo[1,2-a]imidazol-3-yl)-[1,2,4]triazolo[1,5-a]pyridine]	< 0.05	< 0.05	–
COCCOc1cnc2ccc(-c3c(-c4cc(C)ccc4F)nc4n3CCC4)cc2n1 [Compound 358, 7-(2-(2-fluoro-5-methylphenyl)-6,7-dihydro-5H-pyrrolo[1,2-a]imidazol-3-yl)-2-(2-methoxyethoxy)quinoxaline]	–	–	IC50 (GDF8; [3]): 0.1 to 1 µM; IC50 (TGF-β; [4]): 0.1 to 1 µM
Cc1ccccc1-c1nc2n(c1-c1ccc3nccn3c1)CCC2 [Compound 63, 6-(2-(2-methylphenyl)-6,7-dihydro-5H-pyrrolo[1,2-a]imidazol-3-yl)imidazo[1,2-a]pyridine]	> 1	> 1	–
Fc1cc(-c2nc3n(c2-c2ccc4ncccc4c2)CCC3)c(F)cc1Cl [Compound 242, 6-(2-(4-chloro-2,5-difluorophenyl)-6,7-dihydro-5H-pyrrolo[1,2-a]imidazol-3-yl)quinoline]	> 1	> 1	–
Cc1c(F)ccc(-c2nc3n(c2-c2ccc4[nH]ncc4c2)CCC3)c1Cl [Compound 312, 5-(2-(2-chloro-4-fluoro-3-methylphenyl)-6,7-dihydro-5H-pyrrolo[1,2-a]imidazol-3-yl)-1H-indazole]	–	–	IC50 (GDF8; [3]): > 1 µM; IC50 (TGF-β; [4]): > 1 µM
Cc1cccc(-c2nc3n(c2-c2ccc4[nH]cnc4c2)CCC3)c1 [Compound 171, 5-(2-(m-tolyl)-6,7-dihydro-5H-pyrrolo[1,2-a]imidazol-3-yl)-1H-benzo[d]imidazole]	0.05 to 0.1	0.1 to 1	–
Cc1cccc(-c2nc3occn3c2-c2ccc3nccnc3c2)c1 [Compound 142, 5-(quinoxalin-6-yl)-6-(m-tolyl)imidazo[2,1-b]oxazole]	< 0.05	< 0.05	–
Fc1cc(F)c(-c2nc3occn3c2-c2ccc3cn[nH]c3c2)cc1F [Compound 147, 6-(2,4,5-trifluorophenyl)-5-(1H-indazol-6-yl)imidazo[2,1-b]oxazole]	< 0.05	0.05 to 0.1	–
Fc1cc(F)c(-c2nc3n(c2-c2cc4cnccc4s2)CCC3)cc1F [Compound 99, 2-(2-(2,4,5-trifluorophenyl)-6,7-dihydro-5H-pyrrolo[1,2-a]imidazol-3-yl)thieno[3,2-c]pyridine]	0.05 to 0.1	0.1 to 1	–
Fc1cc(F)c(-c2nc3occn3c2-c2ccc3[nH]ncc3c2)cc1F [Compound 152, 6-(2,4,5-trifluorophenyl)-5-(1H-indazol-5-yl)imidazo[2,1-b]oxazole]	< 0.05	0.05 to 0.1	–
Fc1cc(F)c(-c2nc3n(c2-c2ccc4nccn4c2)CCC3)cc1F [Compound 12]	< 0.05	0.1 to 1	–
CN(C)CCOc1cnc2ccc(-c3c(-c4cc(F)c(F)cc4F)nc4n3CCC4)cc2n1 [Compound 362, N,N-dimethyl-2-((7-(2-(2,4,5-trifluorophenyl)-6,7-dihydro-5H-pyrrolo[1,2-a]imidazol-3-yl)quinoxalin-2-yl)oxy)ethan-1-amine]	–	–	IC50 (GDF8; [3]): 0.1 to 1 µM; IC50 (TGF-β; [4]): 0.1 to 1 µM
Nc1ncnc2ccc(-c3c(-c4cc(F)cc(F)c4F)nc4n3CCC4)cc12 [Compound 344, 6-(2-(2,3,5-trifluorophenyl)-6,7-dihydro-5H-pyrrolo[1,2-a]imidazol-3-yl)quinazolin-4-amine]	0.1 to 1	0.1 to 1	–
Cc1cc(-c2nc3n(c2-c2ccc4ncccc4c2)CCC3)c(Cl)cc1F [Compound 322, 6-(2-(2-chloro-4-fluoro-5-methylphenyl)-6,7-dihydro-5H-pyrrolo[1,2-a]imidazol-3-yl)quinoline]	–	–	IC50 (GDF8; read-out: GDF8: inhibition of GDF8 signaling, GDF pSMAD (MPC11), p-SMAD3 (Ser423/425) AlphaScreen in cell lysate, GDF8 stimulation): > 1 µM; IC50 (TGF-β; read-out: TGF-β: inhibition of TGF-β signaling, TGF-β pSMAD (MPC-11), p-SMAD3 (Ser423/425) AlphaScreen in cell lysate, TGF-β stimulation): > 1 µM
O=S(=O)(Nc1cccc(-c2nc3n(c2-c2ccc4[nH]ncc4c2)CCC3)c1)c1ccccc1F [Compound 320, N-(3-(3-(1H-indazol-5-yl)-6,7-dihydro-5H-pyrrolo[1,2-a]imidazol-2-yl)phenyl)-2-fluorobenzenesulfonamide]	–	–	IC50 (GDF8; [3]): > 1 µM; IC50 (TGF-β; [4]): > 1 µM
Cc1ccc(Cl)cc1-c1nc2n(c1-c1ccc3ncccc3c1)CCC2 [Compound 340, 6-(2-(5-chloro-2-methylpheny)-6,7-dihydro-5H-pyrrolo[1,2-a]imidazol-3-yl)quinoline]	0.1 to 1	0.1 to 1	–
Fc1cc(F)c(-c2nc3n(c2-c2ccc4nccnc4c2)CCC3)cc1F [Compound 219, 6-(2-(2,4,5-trifluorophenyl)-6,7-dihydro-5H-pyrrolo[1,2-a]imidazol-3-yl)quinoxaline]	< 0.05	0.1 to 1	–
